What was measured:
Type in all cases: cell-based
human PGD receptor = molecular target: T1, human PGD receptor (Homo sapiens, UniProt Q13258); test: cAMP antagonism test on the human prostaglandin D receptor (HTRF cAMP detection); conditions: selectivity towards hDP, IC50 measured by cAMP antagonism test
T1 sequence (Q13258 1-359): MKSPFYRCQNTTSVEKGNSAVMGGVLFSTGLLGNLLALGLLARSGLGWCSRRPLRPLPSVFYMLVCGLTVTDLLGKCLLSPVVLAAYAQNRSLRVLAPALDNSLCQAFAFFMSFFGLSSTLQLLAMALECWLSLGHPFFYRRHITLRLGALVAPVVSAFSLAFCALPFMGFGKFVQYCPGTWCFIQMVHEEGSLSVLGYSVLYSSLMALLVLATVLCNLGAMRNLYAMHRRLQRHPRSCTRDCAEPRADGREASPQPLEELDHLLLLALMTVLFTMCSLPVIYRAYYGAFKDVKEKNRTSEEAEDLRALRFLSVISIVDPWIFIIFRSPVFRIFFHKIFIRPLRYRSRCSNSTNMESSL
In short: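 Cells pre-mixed with cAMP-d2 were preincubated with compound (0.8 nM–16.5 μM) for 20 min at RT, then stimulated with 3× PGD2 solution (6 nM, in PBS-IBMX) for 30 min at RT. After lysis (20 min), HTRF read at 665/620 nm; antagonism seen as rise in FRET ratio.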

[1] = molecular target: EP4 subtype of the human PGE2 receptor (Homo sapiens, UniProt P35408); test: cAMP antagonism test on the human EP4 receptor (HTRF cAMP detection); conditions: selectivity towards hEP4, IC50 measured by cAMP antagonism test
Chain of EP4 subtype of the human PGE2 receptor (P35408 whole entry): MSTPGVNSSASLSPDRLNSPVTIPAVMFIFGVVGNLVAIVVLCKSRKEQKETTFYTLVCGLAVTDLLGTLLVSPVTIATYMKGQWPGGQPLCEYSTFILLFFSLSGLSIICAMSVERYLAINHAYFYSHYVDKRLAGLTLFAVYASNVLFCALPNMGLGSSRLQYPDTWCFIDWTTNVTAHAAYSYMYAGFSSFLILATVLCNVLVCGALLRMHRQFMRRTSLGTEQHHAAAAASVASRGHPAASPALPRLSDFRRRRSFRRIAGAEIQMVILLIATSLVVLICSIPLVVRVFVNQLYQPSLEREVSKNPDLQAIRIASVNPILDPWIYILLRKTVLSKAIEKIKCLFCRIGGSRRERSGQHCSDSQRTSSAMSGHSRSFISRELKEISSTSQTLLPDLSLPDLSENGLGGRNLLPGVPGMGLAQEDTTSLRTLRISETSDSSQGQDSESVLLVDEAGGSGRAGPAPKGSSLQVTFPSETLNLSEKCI
In short: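 Cells expressing human EP4 preincubated 20 min at RT with compound (0.8 nM–16.5 μM), then stimulated with PGE2 (0.3 nM in 3× solution, with IBMX) 60 min at RT. After lysis, cAMP measured by HTRF competition (665/620 nm ratio); antagonism seen as rise in FRET signal.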

[2] = molecular target: EP2 subtype of the human PGE2 receptor (Homo sapiens, UniProt P43116); test: cAMP antagonism test on the human EP2 receptor (HTRF cAMP detection); conditions: hEP2 receptor, read-out: Antagonism hEP2 IC50
Chain of EP2 subtype of the human PGE2 receptor (P43116 whole entry): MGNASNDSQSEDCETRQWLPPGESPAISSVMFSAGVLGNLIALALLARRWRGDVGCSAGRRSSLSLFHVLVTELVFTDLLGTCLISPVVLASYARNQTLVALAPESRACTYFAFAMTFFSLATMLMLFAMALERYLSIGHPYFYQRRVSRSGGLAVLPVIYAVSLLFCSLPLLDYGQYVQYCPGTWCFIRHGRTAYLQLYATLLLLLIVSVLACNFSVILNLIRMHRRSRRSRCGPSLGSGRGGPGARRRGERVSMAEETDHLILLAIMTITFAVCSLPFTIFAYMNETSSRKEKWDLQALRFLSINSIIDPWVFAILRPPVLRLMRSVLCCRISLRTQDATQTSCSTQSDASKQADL
In short: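 Cells expressing human EP2 preincubated 20 min at RT with compound (0.8 nM–16.5 μM), then stimulated 60 min with PGE2 (3× solution 1.5 nM) in PBS-IBMX. After 20 min lysis, cAMP measured by competitive HTRF with cAMP-d2 and Eu cryptate anti-cAMP antibody (665/620 nm ratio).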

Selectivity hEP2/hDP (human PGD receptor)	Selectivity hEP2/hEP4 [1]	IC50 [2]	SMILES
xxx (xxx > 100)	xxx (xxx > 100)	5.59 nM	COCCNC(=O)c1ccc2nn(CC3CCN(C(=O)c4ccc(-c5ccc(F)cc5F)cc4)CC3)cc2c1C [Example 48, 2-({1-[(2′,4′-difluoro-biphenyl-4-yl)-carbonyl]piperidin-4-yl}methyl)-N-(2-methoxyethyl)-4-methyl-2H-indazol-5-carboxamide]
xxx (xxx > 100)	xxx (xxx > 100)	40.9 nM	Cc1cc2nn(CC3CN(C(=O)c4ccc(OC(F)(F)F)cc4)C3)cc2cc1C(=O)NCCSC(F)(F)F [Example 194, 6-methyl-2-({1-[4-(trifluoromethoxy)benzoyl]azetidin-3-yl}methyl)-N-{2-[(trifluoromethyl)sulphanyl]ethyl}-2H-indazol-5-carboxamide]
xxx (xxx > 100)	xxx (xxx > 100)	23.5 nM	Cc1cc2nn(CC3CN(C(=O)c4ccc(S(F)(F)(F)(F)F)cc4)C3)cc2cc1C(=O)NCCSC(F)(F)F [Example 187, 6-methyl-2-({1-[4-(pentafluoro-λ^6-sulphanyl)benzoyl]azetidin-3-yl}methyl)-N-{2-[(trifluoromethyl)sulphanyl]ethyl}-2H-indazol-5-carboxamide]
xxx (xxx > 100)	xxx (xxx > 100)	23 nM	COCCNC(=O)c1cc2cn(CC3CCN(C(=O)c4cn(C)c5ccccc45)CC3)nc2cc1C [Example 281, N-(2-methoxyethyl)-6-methyl-2-({1-[(1-methyl-1H-indol-3-yl)carbonyl]-piperidin-4-yl}methyl)-2H-indazol-5-carboxamide]
xxx (xxx > 100)	xxx (xxx > 100)	61.6 nM	COCCNC(=O)c1ccc2nn(CC3CCN(C(=O)c4ccc(-c5cnco5)cc4)CC3)cc2c1C [Example 36, N-(2-methoxyethyl)-4-methyl-2-({1-[4-(oxazol-5-yl)-benzoyl]piperidin-4-yl}methyl)-2H-indazol-5-carboxamide]
xxx (xxx > 100)	xxx (xxx > 100)	51.9 nM	COCCNC(=O)c1cc2cn(CC3CN(C(=O)c4ccc(C(F)(F)F)cc4)C3)nc2cc1C [Example 186, N-(2-methoxyethyl)-6-methyl-2-({1-[4-(trifluoromethyl)benzoyl]azetidin-3-yl}methyl)-2H-indazol-5-carboxamide]
xxx (xxx > 100)	xxx (xxx > 100)	12.5 nM	Cc1c(C(=O)NCCS(C)(=O)=O)ccc2nn(CC3CCN(C(=O)c4ccc(Oc5ccc(C(F)(F)F)nc5)cc4)CC3)cc12 [Example 397, N-(2-mesylethyl)-4-methyl-2-{[1-(4-{[6-(trifluoromethyl)pyridin-3-yl]oxy}-benzoyl)piperidin-4-yl]methyl}-2H-indazol-5-carboxamide]
xxx (xxx > 100)	xxx (xxx > 100)	6.27 nM	COCCNC(=O)c1ccc2nn(CC3CCN(C(=O)c4ccc(-c5ccc(C(F)(F)F)cc5)cc4)CC3)cc2c1C [Example 360, N-(2-methoxyethyl)-4-methyl-2-[(1-{[4′-(trifluoromethyl)biphenyl-4-yl]-carbonyl}piperidin-4-yl)methyl]-2H-indazol-5-carboxamide]
xxx (xxx > 100)	xxx (xxx > 100)	3.59 nM	COCCNC(=O)c1ccc2nn(CC3CCN(C(=O)c4ccc(-c5ccc(F)cc5C)cc4)CC3)cc2c1C [Example 376, 2-({1-[(4′-fluoro-2′-methylbiphenyl-4-yl)carbonyl]piperidin-4-yl}methyl)-N-(2-methoxyethyl)-4-methyl-2H-indazol-5-carboxamide]
xx (xx: 10-100)	xx (xx: 10-100)	541 nM	Cc1c(C(=O)NCC(F)(F)F)ccc2nn(CC3CCN(C(=O)c4nc5ccccc5o4)CC3)cc12 [Example 299, 2-{[1-(benzoxazol-2-ylcarbonyl)piperidin-4-yl]methyl}-4-methyl-N-(2,2,2-trifluoroethyl)-2H-indazol-5-carboxamide]
xxx (xxx > 100)	xxx (xxx > 100)	6.8 nM	Cc1c(C(=O)NCCOCC(F)(F)F)ccc2nn(CC3CN(C(=O)c4ccc(Oc5ccc(C(F)(F)F)cc5)cc4)C3)cc12 [Example 163, 4-methyl-N-[2-(2,2,2-trifluoroethoxy)ethyl]-2-[(1-{4-[4-(trifluoromethyl)phenoxy]benzoyl}azetidin-3-yl)methyl]-2H-indazol-5-carboxamide]
xxx (xxx > 100)	xxx (xxx > 100)	109 nM	Cc1c(C(=O)NCC(F)(F)F)ccc2nn(CC3CN(C(=O)c4ccc(S(F)(F)(F)(F)F)cc4)C3)cc12 [Example 132, 4-methyl-2-({1-[4-(pentafluoro-λ^6-sulphanyl)benzoyl]azetidin-3-yl}methyl)-N-(2,2,2-trifluoroethyl)-2H-indazol-5-carboxamide]
xx (xx: 10-100)	xx (xx: 10-100)	301 nM	Cc1c(C(=O)NCC(F)(F)F)ccc2nn(CC3CCN(C(=O)c4nc(-c5ccccc5)no4)CC3)cc12 [Example 305, 4-methyl-2-({1-[(3-phenyl-1,2,4-oxadiazol-5-yl)carbonyl]piperidin-4-yl}methyl)-N-(2,2,2-trifluoroethyl)-2H-indazol-5-carboxamide]
xxx (xxx > 100)	xxx (xxx > 100)	114 nM	COCCNC(=O)c1ccc2nn(C[C@@H]3CCN(C(=O)c4ccc(Cl)cc4)C3)cc2c1C [Example 217, 2-{[(R)-1-(4-chlorobenzoyl)pyrrolidin-3-yl]methyl}-N-(2-methoxyethyl)-4-methyl-2H-indazol-5-carboxamide]
xxx (xxx > 100)	xxx (xxx > 100)	113 nM	COCCNC(=O)c1ccc2nn(CC3CCN(C(=O)c4ccc(-n5cncn5)cc4)CC3)cc2c1C [Example 39, N-(2-methoxyethyl)-4-methyl-2-({1-[4-(1H-1,2,4-triazol-1-yl)benzoyl]piperidin-4-yl}methyl)-2H-indazol-5-carboxamide]
xxx (xxx > 100)	xxx (xxx > 100)	47.9 nM	CCOc1c(C(=O)NCCOC)ccc2nn(CC3CN(C(=O)c4ccc(S(F)(F)(F)(F)F)cc4)C3)cc12 [Example 277, 4-ethoxy-N-(2-methoxyethyl)-2-({1-[4-(pentafluoro-λ^6-sulphanyl)benzoyl]-azetidin-3-yl}methyl)-2H-indazol-5-carboxamide]

SMILES	Selectivity hEP2/hDP (human PGD receptor)	Selectivity hEP2/hEP4 [1]	IC50 [2]
Cc1c(C(=O)NCCOC(C)(C)C)ccc2nn(CC3CCN(C(=O)c4ccc(Cl)cc4)CC3)cc12 [Example 111, N-(2-tert-butoxyethyl)-2-{[1-(4-chlorobenzoyl)piperidin-4-yl]methyl}-4-methyl-2H-indazol-5-carboxamide]	xxx (xxx > 100)	xxx (xxx > 100)	13.7 nM
